Source: ChEMBL document CHEMBL4507259 (2021)

What was measured:
[1] = target: T1, Alpha-1A adrenergic receptor (Homo sapiens) (UniProt P35348); assay: alpha 1A (h) CEREP ligand profiling; settings: filed as antagonist, Compound concentration 10.0 uM
T1 sequence (whole entry): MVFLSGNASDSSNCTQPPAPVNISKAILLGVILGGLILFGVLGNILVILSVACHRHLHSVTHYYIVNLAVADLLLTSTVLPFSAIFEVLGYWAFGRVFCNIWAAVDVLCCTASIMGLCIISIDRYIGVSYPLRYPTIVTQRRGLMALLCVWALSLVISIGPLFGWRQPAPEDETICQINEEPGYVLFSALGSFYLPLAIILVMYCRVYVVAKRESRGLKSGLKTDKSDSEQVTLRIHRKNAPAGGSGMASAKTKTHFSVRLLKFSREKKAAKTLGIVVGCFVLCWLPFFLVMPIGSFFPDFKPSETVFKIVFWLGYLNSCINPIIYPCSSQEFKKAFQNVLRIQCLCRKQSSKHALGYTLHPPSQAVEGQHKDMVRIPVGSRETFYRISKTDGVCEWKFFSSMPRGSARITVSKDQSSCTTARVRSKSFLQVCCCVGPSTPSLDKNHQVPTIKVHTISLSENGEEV

[2] = target: Prostaglandin E2 receptor EP2 subtype (Homo sapiens) (UniProt P43116); assay: EP2 (h) CEREP ligand profiling; settings: filed as agonist, Compound concentration 10.0 uM
[3] = target: Cannabinoid receptor 1 (Homo sapiens) (UniProt P21554); assay: CB1 (h) CEREP ligand profiling; settings: filed as agonist, Compound concentration 10.0 uM
[4] = target: Type-1 angiotensin II receptor (Homo sapiens) (UniProt P30556); assay: AT1 (h) CEREP ligand profiling; settings: filed as antagonist, Compound concentration 10.0 uM
[5] = test system: Tyrosine-protein kinase ABL1 (Homo sapiens), P00519 [T315I]; settings: Compound concentration 1000.0 nM
[6] = target: Ankyrin repeat and protein kinase domain-containing protein 1 (Homo sapiens) (UniProt Q8NFD2); settings: Compound concentration 1000.0 nM
[7] = target: Cyclin-dependent kinase 11A (Homo sapiens) (UniProt Q9UQ88); settings: Compound concentration 1000.0 nM
[8] = test system: Epidermal growth factor receptor (Homo sapiens), P00533 [L858R,T790M]; settings: Compound concentration 1000.0 nM
[9] = test system: Epidermal growth factor receptor (Homo sapiens), P00533 [UNDEFINED MUTATION]; settings: Compound concentration 1000.0 nM
[10] = target: Mitogen-activated protein kinase 3 (Homo sapiens) (UniProt P27361); settings: Compound concentration 1000.0 nM
[11] = target: Fibroblast growth factor receptor 2 (Homo sapiens) (UniProt P21802); settings: Compound concentration 1000.0 nM
[12] = target: Insulin receptor (Homo sapiens) (UniProt P06213); settings: Compound concentration 1000.0 nM
[13] = test system: Mast/stem cell growth factor receptor Kit (Homo sapiens), P10721 [A829P]; settings: Compound concentration 1000.0 nM
[14] = test system: Mast/stem cell growth factor receptor Kit (Homo sapiens), P10721 [D816V]; settings: Compound concentration 1000.0 nM
[15] = test system: Mast/stem cell growth factor receptor Kit (Homo sapiens), P10721 [V559D,T670I]; settings: Compound concentration 1000.0 nM
[16] = target: Tyrosine-protein kinase Lck (Homo sapiens) (UniProt P06239); settings: Compound concentration 1000.0 nM
[17] = target: Serine/threonine-protein kinase MAK (Homo sapiens) (UniProt P20794); settings: Compound concentration 1000.0 nM
[18] = target: Mitogen-activated protein kinase kinase kinase kinase 5 (Homo sapiens) (UniProt Q9Y4K4); settings: Compound concentration 1000.0 nM
[19] = target: MAP kinase-activated protein kinase 5 (Homo sapiens) (UniProt Q8IW41); settings: Compound concentration 1000.0 nM
[20] = target: Dual specificity mitogen-activated protein kinase kinase 2 (Homo sapiens) (UniProt P36507); settings: Compound concentration 1000.0 nM
[21] = target: Dual specificity mitogen-activated protein kinase kinase 6 (Homo sapiens) (UniProt P52564); settings: Compound concentration 1000.0 nM
[22] = test system: Hepatocyte growth factor receptor (Homo sapiens), P08581 [M1250T]; settings: Compound concentration 1000.0 nM
[23] = target: MAP kinase-interacting serine/threonine-protein kinase 2 (Homo sapiens) (UniProt Q9HBH9); settings: Compound concentration 1000.0 nM
[24] = target: Myosin light chain kinase 2, skeletal/cardiac muscle (Homo sapiens) (UniProt Q9H1R3); settings: Compound concentration 1000.0 nM
[25] = target: Myosin-IIIa (Homo sapiens) (UniProt Q8NEV4); settings: Compound concentration 1000.0 nM
[26] = target: Serine/threonine-protein kinase Nek6 (Homo sapiens) (UniProt Q9HC98); settings: Compound concentration 1000.0 nM
[27] = target: cAMP-dependent protein kinase catalytic subunit beta (Homo sapiens) (UniProt P22694); settings: Compound concentration 1000.0 nM
[28] = target: Serine/threonine-protein kinase SIK3 (Homo sapiens) (UniProt Q9Y2K2); settings: Compound concentration 1000.0 nM
[29] = target: Ribosomal protein S6 kinase alpha-3 (Homo sapiens) (UniProt P51812); settings: Compound concentration 1000.0 nM
[30] = target: Ribosomal protein S6 kinase alpha-6 (Homo sapiens) (UniProt Q9UK32); settings: Compound concentration 1000.0 nM
[31] = target: Serine/threonine-protein kinase Sgk2 (Homo sapiens) (UniProt Q9HBY8); settings: Compound concentration 1000.0 nM
[32] = target: Serine/threonine-protein kinase SIK2 (Homo sapiens) (UniProt Q9H0K1); settings: Compound concentration 1000.0 nM
[33] = target: Activated CDC42 kinase 1 (Homo sapiens) (UniProt Q07912); settings: Compound concentration 1000.0 nM
[34] = target: High affinity nerve growth factor receptor (Homo sapiens) (UniProt P04629); settings: Compound concentration 1000.0 nM
[35] = target: Serine/threonine-protein kinase 25 (Homo sapiens) (UniProt O00506); settings: Compound concentration 1000.0 nM
[36] = target: Histamine H1 receptor (Homo sapiens) (UniProt P35367); settings: Compound concentration 10.0 uM
[37] = target: GABA-A receptor; anion channel (Rattus norvegicus) (UniProt O09028+P15431+P18506+P18508+P19969+P20236+P23574+P23576+P28471+P28473+P30191+P62813+P63079+P63138+Q91ZM7+Q9ES14); settings: Compound concentration 10.0 uM

Chain of Activated CDC42 kinase 1 (Homo sapiens) (Q07912 whole entry, looked up): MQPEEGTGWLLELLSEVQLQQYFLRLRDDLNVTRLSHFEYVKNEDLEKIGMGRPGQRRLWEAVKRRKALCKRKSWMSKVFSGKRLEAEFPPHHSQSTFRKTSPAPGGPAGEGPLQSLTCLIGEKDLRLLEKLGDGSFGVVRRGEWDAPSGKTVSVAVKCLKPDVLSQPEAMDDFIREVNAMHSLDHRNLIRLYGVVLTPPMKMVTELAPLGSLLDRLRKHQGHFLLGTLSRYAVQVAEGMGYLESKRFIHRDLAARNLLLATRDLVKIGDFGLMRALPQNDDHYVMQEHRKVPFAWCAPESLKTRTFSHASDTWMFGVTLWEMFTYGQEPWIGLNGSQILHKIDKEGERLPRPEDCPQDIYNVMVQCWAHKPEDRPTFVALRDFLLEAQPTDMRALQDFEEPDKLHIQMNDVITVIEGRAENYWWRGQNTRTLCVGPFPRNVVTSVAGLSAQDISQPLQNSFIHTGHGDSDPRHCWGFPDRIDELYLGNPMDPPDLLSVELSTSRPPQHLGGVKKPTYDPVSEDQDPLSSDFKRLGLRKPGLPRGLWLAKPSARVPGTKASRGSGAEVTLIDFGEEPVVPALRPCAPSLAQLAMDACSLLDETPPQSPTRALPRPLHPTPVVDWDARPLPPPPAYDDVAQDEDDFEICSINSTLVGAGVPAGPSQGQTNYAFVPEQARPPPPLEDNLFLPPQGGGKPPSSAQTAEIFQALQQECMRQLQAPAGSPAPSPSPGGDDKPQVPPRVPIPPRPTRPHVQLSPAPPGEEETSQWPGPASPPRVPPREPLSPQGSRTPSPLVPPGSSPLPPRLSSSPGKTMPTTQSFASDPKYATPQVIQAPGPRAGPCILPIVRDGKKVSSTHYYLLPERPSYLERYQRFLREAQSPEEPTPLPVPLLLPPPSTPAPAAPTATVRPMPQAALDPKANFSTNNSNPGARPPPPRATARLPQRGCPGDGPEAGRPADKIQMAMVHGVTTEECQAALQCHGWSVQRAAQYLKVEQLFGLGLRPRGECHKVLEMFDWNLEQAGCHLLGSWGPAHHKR
Chain of MAP kinase-interacting serine/threonine-protein kinase 2 (Homo sapiens) (Q9HBH9 whole entry, looked up): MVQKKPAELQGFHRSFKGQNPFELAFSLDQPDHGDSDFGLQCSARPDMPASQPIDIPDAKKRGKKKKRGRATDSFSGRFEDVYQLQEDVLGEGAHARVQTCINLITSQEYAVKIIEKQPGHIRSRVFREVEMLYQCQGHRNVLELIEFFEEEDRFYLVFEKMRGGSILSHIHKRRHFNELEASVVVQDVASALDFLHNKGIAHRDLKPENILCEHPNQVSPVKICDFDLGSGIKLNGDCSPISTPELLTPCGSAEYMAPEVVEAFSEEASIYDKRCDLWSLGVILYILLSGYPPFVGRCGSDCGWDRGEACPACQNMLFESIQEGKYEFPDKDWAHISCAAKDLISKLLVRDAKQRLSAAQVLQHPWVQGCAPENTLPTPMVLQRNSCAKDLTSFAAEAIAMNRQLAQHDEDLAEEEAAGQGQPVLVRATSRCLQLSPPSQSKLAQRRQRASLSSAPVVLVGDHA
Chain of Serine/threonine-protein kinase SIK3 (Homo sapiens) (Q9Y2K2 whole entry, looked up): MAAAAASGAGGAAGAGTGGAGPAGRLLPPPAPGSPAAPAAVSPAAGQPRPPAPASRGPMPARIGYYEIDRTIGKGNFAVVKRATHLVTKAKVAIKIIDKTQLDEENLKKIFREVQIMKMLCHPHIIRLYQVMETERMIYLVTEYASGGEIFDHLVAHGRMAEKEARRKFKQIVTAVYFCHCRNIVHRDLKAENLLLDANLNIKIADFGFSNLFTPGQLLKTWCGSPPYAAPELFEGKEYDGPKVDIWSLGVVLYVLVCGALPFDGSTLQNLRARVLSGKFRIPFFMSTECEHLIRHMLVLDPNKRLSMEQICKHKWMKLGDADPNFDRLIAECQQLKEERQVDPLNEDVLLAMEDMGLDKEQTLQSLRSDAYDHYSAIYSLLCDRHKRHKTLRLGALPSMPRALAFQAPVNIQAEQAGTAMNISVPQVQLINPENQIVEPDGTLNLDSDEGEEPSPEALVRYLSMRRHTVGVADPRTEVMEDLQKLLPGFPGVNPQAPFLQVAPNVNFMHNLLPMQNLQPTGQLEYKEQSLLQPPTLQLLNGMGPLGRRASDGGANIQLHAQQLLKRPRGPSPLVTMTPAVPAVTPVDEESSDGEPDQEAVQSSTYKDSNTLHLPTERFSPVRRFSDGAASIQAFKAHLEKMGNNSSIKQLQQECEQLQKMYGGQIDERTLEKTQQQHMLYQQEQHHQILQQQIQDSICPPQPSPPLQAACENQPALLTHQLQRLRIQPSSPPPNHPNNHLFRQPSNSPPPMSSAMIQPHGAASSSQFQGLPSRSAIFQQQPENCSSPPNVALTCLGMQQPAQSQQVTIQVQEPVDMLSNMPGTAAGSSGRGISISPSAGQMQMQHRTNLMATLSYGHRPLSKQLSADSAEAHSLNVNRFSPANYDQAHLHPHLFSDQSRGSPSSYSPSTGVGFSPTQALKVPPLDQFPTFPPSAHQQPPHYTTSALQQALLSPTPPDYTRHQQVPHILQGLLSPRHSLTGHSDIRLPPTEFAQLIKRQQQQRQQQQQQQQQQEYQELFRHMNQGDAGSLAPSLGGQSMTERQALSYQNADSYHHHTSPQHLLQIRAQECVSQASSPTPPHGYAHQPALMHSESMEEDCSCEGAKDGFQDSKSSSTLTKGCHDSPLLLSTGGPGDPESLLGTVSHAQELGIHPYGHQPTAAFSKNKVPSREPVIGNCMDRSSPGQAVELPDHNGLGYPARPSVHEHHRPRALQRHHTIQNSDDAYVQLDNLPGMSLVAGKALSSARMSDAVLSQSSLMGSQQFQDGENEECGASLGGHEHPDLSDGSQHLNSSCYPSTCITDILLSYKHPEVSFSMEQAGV
Chain of Serine/threonine-protein kinase Nek6 (Homo sapiens) (Q9HC98 whole entry): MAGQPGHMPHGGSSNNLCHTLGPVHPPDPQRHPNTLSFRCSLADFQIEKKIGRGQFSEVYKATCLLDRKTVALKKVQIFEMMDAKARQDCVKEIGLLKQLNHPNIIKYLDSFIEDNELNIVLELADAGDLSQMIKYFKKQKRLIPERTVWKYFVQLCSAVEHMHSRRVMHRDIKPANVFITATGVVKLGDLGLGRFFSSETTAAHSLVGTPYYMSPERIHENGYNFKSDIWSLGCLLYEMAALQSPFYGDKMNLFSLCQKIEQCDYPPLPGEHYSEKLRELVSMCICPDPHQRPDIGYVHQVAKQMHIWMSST
Chain of Fibroblast growth factor receptor 2 (Homo sapiens) (P21802 22-821 limits assumed): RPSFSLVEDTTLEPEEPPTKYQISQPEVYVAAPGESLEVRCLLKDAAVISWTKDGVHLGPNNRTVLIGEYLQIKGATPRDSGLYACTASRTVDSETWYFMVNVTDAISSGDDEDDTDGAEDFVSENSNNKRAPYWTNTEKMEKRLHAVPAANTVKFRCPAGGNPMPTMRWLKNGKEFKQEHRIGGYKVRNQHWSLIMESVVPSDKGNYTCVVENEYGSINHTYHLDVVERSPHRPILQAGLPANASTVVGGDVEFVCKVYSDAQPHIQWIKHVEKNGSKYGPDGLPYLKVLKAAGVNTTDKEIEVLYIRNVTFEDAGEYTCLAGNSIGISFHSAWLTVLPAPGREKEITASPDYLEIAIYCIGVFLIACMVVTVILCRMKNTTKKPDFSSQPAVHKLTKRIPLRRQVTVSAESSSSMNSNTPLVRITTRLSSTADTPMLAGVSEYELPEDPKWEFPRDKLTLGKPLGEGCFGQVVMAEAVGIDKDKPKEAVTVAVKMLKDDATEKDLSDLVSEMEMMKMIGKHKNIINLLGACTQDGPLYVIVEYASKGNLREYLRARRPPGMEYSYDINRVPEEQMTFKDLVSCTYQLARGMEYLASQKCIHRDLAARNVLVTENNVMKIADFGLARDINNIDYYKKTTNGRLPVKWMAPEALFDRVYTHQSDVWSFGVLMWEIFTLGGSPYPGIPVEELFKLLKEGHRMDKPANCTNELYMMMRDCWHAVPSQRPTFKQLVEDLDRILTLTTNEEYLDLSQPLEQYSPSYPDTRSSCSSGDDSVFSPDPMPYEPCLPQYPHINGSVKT
Chain of Dual specificity mitogen-activated protein kinase kinase 6 (Homo sapiens) (P52564 whole entry): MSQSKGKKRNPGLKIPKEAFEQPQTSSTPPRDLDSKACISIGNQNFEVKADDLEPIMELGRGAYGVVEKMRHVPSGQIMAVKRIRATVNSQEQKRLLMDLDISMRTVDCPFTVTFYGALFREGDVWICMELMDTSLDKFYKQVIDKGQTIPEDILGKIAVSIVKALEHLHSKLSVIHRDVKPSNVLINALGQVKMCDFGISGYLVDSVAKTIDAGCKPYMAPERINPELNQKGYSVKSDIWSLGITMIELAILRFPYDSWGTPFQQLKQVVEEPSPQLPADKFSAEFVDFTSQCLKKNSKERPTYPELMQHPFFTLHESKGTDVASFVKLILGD
Chain of Cyclin-dependent kinase 11A (Homo sapiens) (Q9UQ88 whole entry): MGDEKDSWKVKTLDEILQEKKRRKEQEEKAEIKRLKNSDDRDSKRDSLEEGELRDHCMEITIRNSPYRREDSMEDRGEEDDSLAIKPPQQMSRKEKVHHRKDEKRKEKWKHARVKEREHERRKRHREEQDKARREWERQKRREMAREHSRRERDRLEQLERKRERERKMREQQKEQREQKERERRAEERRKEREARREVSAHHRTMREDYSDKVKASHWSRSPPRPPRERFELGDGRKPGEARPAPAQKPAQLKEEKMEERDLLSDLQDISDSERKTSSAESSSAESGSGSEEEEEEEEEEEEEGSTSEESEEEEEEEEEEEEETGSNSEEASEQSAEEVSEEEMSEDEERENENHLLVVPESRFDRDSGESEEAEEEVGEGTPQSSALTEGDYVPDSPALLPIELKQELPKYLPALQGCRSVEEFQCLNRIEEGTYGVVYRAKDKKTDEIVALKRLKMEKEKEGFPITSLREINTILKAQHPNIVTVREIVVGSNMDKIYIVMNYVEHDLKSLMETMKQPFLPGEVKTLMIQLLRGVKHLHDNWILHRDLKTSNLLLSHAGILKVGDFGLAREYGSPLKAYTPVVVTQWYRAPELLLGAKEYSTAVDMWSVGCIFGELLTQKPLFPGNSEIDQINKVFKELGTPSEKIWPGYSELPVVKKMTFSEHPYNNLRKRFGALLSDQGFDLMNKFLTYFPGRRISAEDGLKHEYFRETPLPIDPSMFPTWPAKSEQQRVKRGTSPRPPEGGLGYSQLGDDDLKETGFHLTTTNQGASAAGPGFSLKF

Structure (SMILES)	inhibition [1] [%]	inhibition [2] [%]	inhibition [3] [%]	inhibition [4] [%]	residual activity [5] [%]	residual activity [6] [%]	residual activity [7] [%]	residual activity [8] [%]	residual activity [9] [%]	residual activity [10] [%]	residual activity [11] [%]	residual activity [12] [%]	residual activity [13] [%]	residual activity [14] [%]	residual activity [15] [%]	residual activity [16] [%]	residual activity [17] [%]	residual activity [18] [%]	residual activity [19] [%]	residual activity [20] [%]	further results
CNC(=O)Nc1ccc2c(c1)CC[C@@]21OC(=O)N(CC(=O)N(Cc2ccc(F)cc2)[C@@H](C)C(F)(F)F)C1=O [A-485]	29	27	25	18	78	81	83	91	63	92	88	81	79	70	93	84	84	88	82	96	residual activity [21]: 100%; residual activity [22]: 75%; residual activity [23]: 82%; residual activity [24]: 84%; residual activity [25]: 100%; residual activity [26]: 86%; residual activity [27]: 100%; residual activity [28]: 94%; residual activity [29]: 88%; residual activity [30]: 81%; residual activity [31]: 100%; residual activity [32]: 88%; residual activity [33]: 90%; residual activity [34]: 81%; residual activity [35]: 99%; inhibition [36]: 1.99%; inhibition [37]: 19.7%
CNC(=O)Nc1ccc2c(c1)[C@@]1(CC2)OC(=O)N(CC(=O)N(Cc2ccc(F)cc2)[C@@H](C)C(F)(F)F)C1=O [A-486]	16	10	22	17	86	61	94	83	100	100	87	73	100	96	100	86	100	100	86	99	residual activity [21]: 100%; residual activity [22]: 100%; residual activity [23]: 76%; residual activity [24]: 77%; residual activity [25]: 100%; residual activity [26]: 100%; residual activity [27]: 100%; residual activity [28]: 100%; residual activity [29]: 75%; residual activity [30]: 82%; residual activity [31]: 88%; residual activity [32]: 88%; residual activity [33]: 87%; residual activity [34]: 41%; residual activity [35]: 100%; inhibition [36]: -7.68%; inhibition [37]: 15.6%
